Measured values from ChEMBL document CHEMBL1201862, “PubChem BioAssay data set” (2004).
Active and inactive are the calls of the source.

Key:
[1] = biological target: Ras and Rab interactor 1/Tyrosine-protein kinase ABL1 (Homo sapiens, UniProt P00519+Q13671); assay type: functional;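 also: biochemical TR-FRET dose-response test measuring inhibition of binding between Rin1 and Abl proteins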
[2] = A cytotoxicity screen of small molecule inhibitors of the PhoP region in Salmonella typhi identified in the primary screen. [Related pubchem assays: 1850, 1864, 1985 ]; assay type: functional
[3] = biological target: T1, Polyadenylate-binding protein 1 (Homo sapiens, UniProt P11940); assay: MLLE binding blockers, Cy5 peptide tracer – biochemical, fluorescence polarization, Cy5-PAM2 peptide, secondary, miRNA deadenylation inhibitor project, dose response (AID 602260); assay type: functional; conditions: read-out: IC50_Mean
T1 sequence (P11940 whole entry, the tested form may be a part): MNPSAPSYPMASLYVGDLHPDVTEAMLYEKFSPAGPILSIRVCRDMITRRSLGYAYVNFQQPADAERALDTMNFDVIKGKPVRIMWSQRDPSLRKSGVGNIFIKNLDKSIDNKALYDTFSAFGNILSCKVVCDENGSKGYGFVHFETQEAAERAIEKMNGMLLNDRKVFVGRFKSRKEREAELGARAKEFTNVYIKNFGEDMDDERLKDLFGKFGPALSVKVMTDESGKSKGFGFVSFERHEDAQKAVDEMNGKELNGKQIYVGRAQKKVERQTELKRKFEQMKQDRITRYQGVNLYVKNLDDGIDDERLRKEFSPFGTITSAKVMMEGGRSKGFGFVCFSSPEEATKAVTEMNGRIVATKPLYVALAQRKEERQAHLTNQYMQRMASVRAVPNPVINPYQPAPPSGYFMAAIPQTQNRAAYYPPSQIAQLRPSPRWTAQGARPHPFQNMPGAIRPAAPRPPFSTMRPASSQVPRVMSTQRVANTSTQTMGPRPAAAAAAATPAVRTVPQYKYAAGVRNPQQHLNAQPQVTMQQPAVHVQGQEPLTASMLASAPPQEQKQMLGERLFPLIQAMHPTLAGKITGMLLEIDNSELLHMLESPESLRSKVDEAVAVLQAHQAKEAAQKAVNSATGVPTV

[4] = biological target: T1, Polyadenylate-binding protein 1; assay: MLLE domain peptide-binding blockers, IC50 – biochemical, fluorescence polarization, FITC-PAM2 peptide, dose response (AID 602259); assay type: functional; conditions: read-out: IC50_Mean
[5] = biological target: Melanin-concentrating hormone receptor 1 (Homo sapiens, UniProt Q99705); assay: Fluorescence-based counterscreen for antagonists of the G-protein coupled receptor 7 (GPR7): cell-based high throughput dose response assay to identify antagonists of the melanin-concentrating hormone receptor 1 (MCHR1).; assay type: functional
Melanin-concentrating hormone receptor 1, sequence (Q99705 whole entry): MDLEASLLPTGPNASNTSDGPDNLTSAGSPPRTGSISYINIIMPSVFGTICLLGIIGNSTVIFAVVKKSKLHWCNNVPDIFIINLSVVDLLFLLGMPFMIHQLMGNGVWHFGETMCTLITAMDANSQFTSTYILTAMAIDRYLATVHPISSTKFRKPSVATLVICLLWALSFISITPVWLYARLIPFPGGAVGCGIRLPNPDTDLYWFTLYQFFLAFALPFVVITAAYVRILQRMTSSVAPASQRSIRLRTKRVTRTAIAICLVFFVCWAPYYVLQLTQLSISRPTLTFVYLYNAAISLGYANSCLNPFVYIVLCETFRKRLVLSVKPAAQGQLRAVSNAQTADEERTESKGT

[6] = biological target: T2, Neuropeptides B/W receptor type 1 (Homo sapiens, UniProt P48145); assay: Fluorescence-based dose response cell-based high throughput screening assay to identify antagonists of the G-protein coupled receptor 7 (GPR7). [Related pubchem assays: 1952 (Screening assay (GPR7 antagonists).), 1880 (Summary AID.)]; assay type: functional
T2 sequence (P48145 whole entry): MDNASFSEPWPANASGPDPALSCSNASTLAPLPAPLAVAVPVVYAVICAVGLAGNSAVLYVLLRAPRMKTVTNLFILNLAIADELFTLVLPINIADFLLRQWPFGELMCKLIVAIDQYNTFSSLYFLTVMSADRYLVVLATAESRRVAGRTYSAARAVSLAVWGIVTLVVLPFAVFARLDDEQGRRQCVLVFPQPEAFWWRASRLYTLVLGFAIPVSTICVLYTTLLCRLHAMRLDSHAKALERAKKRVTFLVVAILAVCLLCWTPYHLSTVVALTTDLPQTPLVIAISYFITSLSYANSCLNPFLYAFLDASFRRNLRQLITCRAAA

SN12K1 = assay: cells; assay type: functional; conditions: Homo sapiens, SN12K1
P388/ADR = assay: cells; assay type: functional; conditions: Mus musculus, P388/ADR
P388 = assay: cells; assay type: functional; conditions: Mus musculus, P388
[7] = HIV-1 AD8 envelope cell-cell fusion blockers – cherry-pick, dose response (AID 652062); assay type: functional, cell-based;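 also: luciferase signal from cell-cell fusion driven by HIV-1 clade B AD8 Env; potency is for inhibitors of fusion seen as a drop in luminescence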
[8] = viability loss in CEM21 cells – cell-based, CellTiter-Glo luminescence, cherry-picked, cytotoxicity control for viral fusion inhibitor project, dose response (AID 652042); assay type: functional;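 also: potency for signal decrease meaning cytotoxicity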
[9] = blockers of HIV-1 ZM109 envelope-driven cell-cell fusion – HeLa effector, CEM target cells, luciferase, cherry-pick, dose response (AID 652058); assay type: functional, cell-based;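 also: luciferase signal from HIV-1 Env mediated cell-cell fusion of effector and target cells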
[10] = intracellular Trypanosoma cruzi inhibitors in host cells – cell-based, plate reader, cherry-pick samples, set 3, dose response (AID 651818); assay type: functional;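 also: compounds incubated with infected cells for about four days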
[11] = blockers of HIV-1 envelope-mediated cell-cell fusion – cherry-pick, dose response (AID 652057); assay type: functional, cell-based
[12] = off-target signal loss in HeLa-CEM21 co-culture – HeLa F-luc CTL cells, cherry-picked, counter-screen for HIV-1 Env fusion inhibitor project, dose response (AID 652040); assay type: functional, cell-based;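 also: potency for signal decrease marking cytotoxic or nonspecific inhibition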
[13] = Luminescence Cell-Based Dose Retest to Confirm Inhibitors of Cancer Stem Cells. [Related pubchem assays (depositor defined):AID2717, AID2721]; assay type: functional; conditions: Homo sapiens
Protein Wnt-3a = Protein Wnt-3a (Mus musculus, UniProt P27467); assay: antagonism of Wnt3a pathway luciferase reporter – Wnt-LIGHT cells, luminescence, selectivity assay for Gli-SUFU antagonist project, dose response (AID 651570); assay type: functional; conditions: read-out: IC50_Mean;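 also: Wnt-LIGHT reporter cells stimulated with conditioned medium from Wnt3a-producing cells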
Protein Wnt-3a, sequence (P27467 whole entry): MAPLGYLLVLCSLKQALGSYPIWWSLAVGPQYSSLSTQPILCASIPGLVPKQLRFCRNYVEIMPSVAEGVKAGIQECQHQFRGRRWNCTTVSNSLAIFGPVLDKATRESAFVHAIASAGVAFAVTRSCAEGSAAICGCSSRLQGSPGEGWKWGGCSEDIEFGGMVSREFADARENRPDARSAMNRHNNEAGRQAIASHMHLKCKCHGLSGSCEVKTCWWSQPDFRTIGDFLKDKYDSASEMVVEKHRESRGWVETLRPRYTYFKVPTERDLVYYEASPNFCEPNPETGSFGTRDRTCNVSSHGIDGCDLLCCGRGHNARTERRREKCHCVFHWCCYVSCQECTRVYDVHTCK

[14] = biological target: T3, Long-chain-fatty-acid--AMP ligase FadD28 (Mycobacterium tuberculosis, UniProt P9WQ59); assay: Fluorescence polarization aasay to screen for inhibitors that compete for the binding of FadD28 to a bisubstrate Measured in Biochemical System Using Plate Reader - 2147-01_Inhibitor_Dose_CherryPick_Activity.; assay type: functional, Mycobacterium tuberculosis H37Rv
T3 sequence (P9WQ59 whole entry): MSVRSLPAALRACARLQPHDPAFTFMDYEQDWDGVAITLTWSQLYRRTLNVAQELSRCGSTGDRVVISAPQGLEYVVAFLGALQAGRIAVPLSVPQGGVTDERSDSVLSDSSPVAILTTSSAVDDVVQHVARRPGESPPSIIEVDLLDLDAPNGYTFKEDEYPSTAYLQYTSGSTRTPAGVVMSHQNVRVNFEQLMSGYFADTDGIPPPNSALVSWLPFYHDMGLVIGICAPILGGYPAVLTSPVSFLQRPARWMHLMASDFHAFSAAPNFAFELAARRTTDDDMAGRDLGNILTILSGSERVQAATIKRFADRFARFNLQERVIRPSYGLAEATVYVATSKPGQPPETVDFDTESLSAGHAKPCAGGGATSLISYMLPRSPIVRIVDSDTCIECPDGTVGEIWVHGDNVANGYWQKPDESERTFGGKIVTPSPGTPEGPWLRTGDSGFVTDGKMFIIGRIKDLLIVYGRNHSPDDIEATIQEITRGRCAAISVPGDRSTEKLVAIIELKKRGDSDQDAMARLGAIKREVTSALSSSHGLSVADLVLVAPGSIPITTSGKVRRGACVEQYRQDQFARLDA

[15] = A Cell Based Secondary Assay To Explore Cytotoxicity of Compounds that Sensitize Mycobacterium Tuberculosis to Beta-Lactam Antibiotics.; assay type: functional
[16] = biological target: Glucose-6-phosphate 1-dehydrogenase (Homo sapiens, UniProt P11413); assay: inhibition of Homo sapiens G6PD, dose series – biochemical, fluorescence, selectivity assay for P. falciparum G6PD inhibitor project, dose response (AID 504792); assay type: functional
Glucose-6-phosphate 1-dehydrogenase, sequence (P11413 whole entry): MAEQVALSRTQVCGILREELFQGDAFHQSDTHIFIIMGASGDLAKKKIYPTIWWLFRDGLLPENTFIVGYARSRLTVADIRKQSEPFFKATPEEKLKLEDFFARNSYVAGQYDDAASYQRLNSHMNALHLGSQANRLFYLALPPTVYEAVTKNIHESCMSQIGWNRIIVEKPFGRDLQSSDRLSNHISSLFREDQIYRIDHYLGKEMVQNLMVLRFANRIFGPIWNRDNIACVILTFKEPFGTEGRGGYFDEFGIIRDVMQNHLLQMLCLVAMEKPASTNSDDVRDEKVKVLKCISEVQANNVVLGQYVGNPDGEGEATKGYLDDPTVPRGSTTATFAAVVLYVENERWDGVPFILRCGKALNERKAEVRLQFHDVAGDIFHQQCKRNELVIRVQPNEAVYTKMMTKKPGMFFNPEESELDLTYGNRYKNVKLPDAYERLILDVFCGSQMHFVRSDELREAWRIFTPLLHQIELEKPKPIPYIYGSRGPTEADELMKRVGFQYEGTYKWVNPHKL

Ras and Rab interactor 1/Tyrosine-protein kinase ABL1, sequence (P00519 whole entry): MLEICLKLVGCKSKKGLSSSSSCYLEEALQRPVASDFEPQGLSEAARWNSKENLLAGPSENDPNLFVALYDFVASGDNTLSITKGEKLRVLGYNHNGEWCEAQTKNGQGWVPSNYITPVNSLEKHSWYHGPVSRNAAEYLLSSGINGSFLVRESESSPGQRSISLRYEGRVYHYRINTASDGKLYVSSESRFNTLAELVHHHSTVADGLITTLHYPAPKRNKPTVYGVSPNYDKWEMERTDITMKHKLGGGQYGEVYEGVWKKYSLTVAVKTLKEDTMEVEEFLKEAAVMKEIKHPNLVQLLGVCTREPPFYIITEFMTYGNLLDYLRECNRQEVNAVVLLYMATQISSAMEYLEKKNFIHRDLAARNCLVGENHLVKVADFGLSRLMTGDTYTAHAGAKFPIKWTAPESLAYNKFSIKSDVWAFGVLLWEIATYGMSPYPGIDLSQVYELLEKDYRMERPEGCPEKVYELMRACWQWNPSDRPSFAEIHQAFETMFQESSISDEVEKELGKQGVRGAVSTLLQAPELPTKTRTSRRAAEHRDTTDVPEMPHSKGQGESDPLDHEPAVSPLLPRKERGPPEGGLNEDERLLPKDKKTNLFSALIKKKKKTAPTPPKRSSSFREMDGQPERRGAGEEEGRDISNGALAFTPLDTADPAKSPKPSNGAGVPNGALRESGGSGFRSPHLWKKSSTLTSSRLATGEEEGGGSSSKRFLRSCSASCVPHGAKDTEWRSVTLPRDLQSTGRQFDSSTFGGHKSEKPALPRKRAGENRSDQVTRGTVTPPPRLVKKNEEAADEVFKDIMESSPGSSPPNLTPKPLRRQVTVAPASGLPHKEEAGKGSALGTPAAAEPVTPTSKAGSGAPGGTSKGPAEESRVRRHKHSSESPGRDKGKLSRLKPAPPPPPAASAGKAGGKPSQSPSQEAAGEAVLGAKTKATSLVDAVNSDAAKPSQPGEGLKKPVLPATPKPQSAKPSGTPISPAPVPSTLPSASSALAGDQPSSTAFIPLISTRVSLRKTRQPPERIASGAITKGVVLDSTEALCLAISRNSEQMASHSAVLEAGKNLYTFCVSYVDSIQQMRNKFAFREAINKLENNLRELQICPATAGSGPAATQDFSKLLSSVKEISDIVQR
Ras and Rab interactor 1/Tyrosine-protein kinase ABL1, sequence (Q13671 whole entry): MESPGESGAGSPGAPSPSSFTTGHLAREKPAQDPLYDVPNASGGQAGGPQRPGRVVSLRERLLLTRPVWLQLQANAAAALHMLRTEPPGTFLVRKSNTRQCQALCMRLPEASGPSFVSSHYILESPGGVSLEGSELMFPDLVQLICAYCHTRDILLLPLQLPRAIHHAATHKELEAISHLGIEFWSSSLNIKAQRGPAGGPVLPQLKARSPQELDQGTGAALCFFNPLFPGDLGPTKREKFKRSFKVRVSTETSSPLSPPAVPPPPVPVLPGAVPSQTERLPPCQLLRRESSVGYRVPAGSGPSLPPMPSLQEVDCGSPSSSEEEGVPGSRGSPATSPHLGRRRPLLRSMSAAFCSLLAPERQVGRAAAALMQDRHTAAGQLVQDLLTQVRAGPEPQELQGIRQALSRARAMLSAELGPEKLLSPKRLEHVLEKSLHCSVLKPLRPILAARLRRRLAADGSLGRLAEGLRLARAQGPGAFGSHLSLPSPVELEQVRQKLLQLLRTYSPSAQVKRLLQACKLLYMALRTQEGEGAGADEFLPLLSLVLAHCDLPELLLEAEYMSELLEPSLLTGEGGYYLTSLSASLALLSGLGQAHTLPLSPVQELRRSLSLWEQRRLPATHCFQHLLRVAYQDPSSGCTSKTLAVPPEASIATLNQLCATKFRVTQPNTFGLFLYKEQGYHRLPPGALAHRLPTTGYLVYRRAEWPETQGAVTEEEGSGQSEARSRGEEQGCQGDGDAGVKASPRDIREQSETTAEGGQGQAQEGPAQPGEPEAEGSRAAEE

Which IC50 [1] does the source give for `CN(C(=O)c1ccc(NC(=O)Cc2ccc(NC(=O)C3CCN(C(=O)C4CCCC4)CC3)cc2)cc1)C1CCCC1` here?
Its IC50 is 12.6 µM (inactive).

With `Nc1c(-c2ccccc2)sc2ccc3ccccc3[n+]12` as the compound, how does the EC50 [2] read?
Its EC50 is > 50 µM (active).

What about the IC50 [3] of the same compound?
The IC50 was > 66 µM (inactive).

What about the IC50 [4] of the same compound?
The IC50 was > 66 µM (inactive).

For `CCCCn1c(N)c(N(CC(C)C)C(=O)c2ccc(COc3ccccc3)o2)c(=O)[nH]c1=O`, which IC50 [5] is on record?
The IC50 was > 43.8 µM (not active).

What about the IC50 [6] of the same compound?
The IC50 was > 43.8 µM (not active).

With `Cn1sc2ccccc2c1=S` as the compound, how does the GI50 (SN12K1) read?
The GI50 was 2.79 µM (inactive).

And the GI50 (P388/ADR)?
Its GI50 is 0.441 µM (active).

And the GI50 (P388)?
Its GI50 is 0.294 µM (active).

With `O=P1(Oc2ccc(Cl)cc2Cl)Oc2ccc3ccccc3c2-c2c(ccc3ccccc23)O1` as the compound, how does the GI50 (SN12K1) read?
The GI50 was 20.7 µM (inactive).

And the GI50 (P388/ADR)?
The GI50 was 51.4 µM (inactive).

What about the GI50 (P388) of the same compound?
The GI50 was 33.3 µM (inactive).

Which AC50 [7] does the source give for `Cc1ccc(S(=O)(=O)N(C)C[C@@H]2Oc3cc(C#CC4CCCC4)ccc3S(=O)(=O)N([C@H](C)CO)C[C@H]2C)cc1` here?
The AC50 was 35.2 µM (active).

And the AC50 [8]?
Its AC50 is 61.4 µM (active).

And the AC50 [9]?
The AC50 was 2.34 µM (active).

Which AC50 [10] does the source give for `C[C@H](CO)N1C[C@H](C)[C@H](CN(C)Cc2ccc(-c3ccccc3)cc2)Oc2c(NC(=O)NC3CCCCC3)cccc2C1=O` here?
The AC50 was 3.38 µM (active).

For `Cc1nc(Nc2nc(O)cc(CSc3nc4ccccc4[nH]3)n2)nc2ccccc12`, which AC50 [7] is on record?
The AC50 was 10.3 µM (active).

What about the AC50 [8] of the same compound?
Its AC50 is 11.2 µM (active).

What about the AC50 [11] of the same compound?
Its AC50 is 6.8 µM (active).

And the AC50 [12]?
The AC50 was 8.15 µM (active).

And the AC50 [13]?
The AC50 was 3.58 µM (active).

What about the AC50 [9] of the same compound?
The AC50 was 7.51 µM (active).

For `Cc1ccnc(NC(=O)CCC(=O)N(CC(=O)NC2CCCCC2)C2CCCC2)c1`, which EC50 [2] is on record?
Its EC50 is > 50 µM (active).

For `Cc1ccc(C(=O)N2CCN3C(=O)c4ccccc4C23c2ccc(Cl)cc2)cc1` (stereo unspecified), which IC50 (Protein Wnt-3a) is on record?
Its IC50 is 10.3 µM (active).

With `CCc1ccc(N(C(=O)c2csnn2)C(C(=O)NC2CCCCC2)c2ccncc2)cc1` (stereo unspecified) as the compound, how does the IC50 [5] read?
Its IC50 is > 43.8 µM (not active).

What about the IC50 [6] of the same compound?
The IC50 was > 43.8 µM (not active).

For `C[C@H]1CN([C@@H](C)CO)C(=O)c2cc(NS(=O)(=O)c3ccccc3)ccc2O[C@@H]1CN(C)Cc1ccc(-c2ccccc2)cc1`, which AC50 [10] is on record?
The AC50 was 6.29 µM (active).

With `C[C@@H]1CN([C@@H](C)CO)C(=O)c2cccc(NC(=O)c3nc4ccccc4s3)c2O[C@H]1CN(C)Cc1ccc(C(=O)Nc2ccccc2N)cc1` as the compound, how does the AC50 [10] read?
Its AC50 is 2.09 µM (active).

With `Cc1cccc(NC(=O)Cn2c(=O)oc3cc(S(=O)(=O)N4CCCC4)ccc32)n1` as the compound, how does the AC50 [14] read?
The AC50 was 34.8 µM (active).

Which CC50 [15] does the source give for `CCC1(CC)Cc2ccccc2C(N)=C1C#N` here?
Its CC50 is > 40 µM (active).

What about the IC50 [16] of the same compound?
Its IC50 is > 80 µM (inactive).
